Values belong to the molecule of their own block, whether it stands above or below them. Calls of active or inactive are those of the source. The rule behind the calls is not given here.
Columns and labels:
[1] = molecular target: Protein smoothened (Mus musculus) (UniProt P56726); assay: Activity at Smo in mouse C3H10T1/2 cells assessed as induction of cell differentiation into osteoblast at 10 uM incubated for 6 days by alkaline phosphatase assay relative to GSA-10; type: cell-based; conditions: C3H 10T1/2
Chain of Protein smoothened (Mus musculus) (P56726 whole entry): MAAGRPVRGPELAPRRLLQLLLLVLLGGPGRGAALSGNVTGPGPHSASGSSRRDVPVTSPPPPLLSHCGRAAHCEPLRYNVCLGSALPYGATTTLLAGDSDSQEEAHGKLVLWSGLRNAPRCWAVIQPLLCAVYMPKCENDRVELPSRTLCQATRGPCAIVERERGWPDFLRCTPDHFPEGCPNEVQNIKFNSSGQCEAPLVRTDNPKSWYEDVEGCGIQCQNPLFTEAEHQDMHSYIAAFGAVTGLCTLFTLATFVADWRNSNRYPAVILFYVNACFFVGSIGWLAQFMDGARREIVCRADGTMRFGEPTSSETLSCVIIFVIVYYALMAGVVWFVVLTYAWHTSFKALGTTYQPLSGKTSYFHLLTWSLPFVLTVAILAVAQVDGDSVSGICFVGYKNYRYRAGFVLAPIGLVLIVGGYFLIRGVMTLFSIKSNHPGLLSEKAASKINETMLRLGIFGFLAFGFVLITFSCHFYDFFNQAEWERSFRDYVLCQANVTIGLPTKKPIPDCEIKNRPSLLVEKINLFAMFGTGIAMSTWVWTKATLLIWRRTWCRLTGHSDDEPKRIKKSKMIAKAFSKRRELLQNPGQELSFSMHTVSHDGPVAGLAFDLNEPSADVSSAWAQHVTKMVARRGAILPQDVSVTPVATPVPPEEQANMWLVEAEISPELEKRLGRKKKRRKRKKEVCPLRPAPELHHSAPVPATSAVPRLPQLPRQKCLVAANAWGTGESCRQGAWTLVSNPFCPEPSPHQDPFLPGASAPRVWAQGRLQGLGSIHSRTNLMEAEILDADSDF

[2] = molecular target: Protein smoothened (Mus musculus) (UniProt P56726); assay: Agonist activity at Smo in mouse C3H10T1/2 cells assessed as induction of cell differentiation into osteoblast incubated for 6 days by alkaline phosphatase assay; type: cell-based; conditions: C3H 10T1/2
[3] = molecular target: Protein smoothened (Mus musculus) (UniProt P56726); assay: Agonist activity at Smo in mouse C3H10T1/2 cells assessed as induction of cell differentiation into osteoblast at 10 uM incubated for 6 days by alkaline phosphatase assay relative to GSA-10; type: cell-based; conditions: C3H 10T1/2
[4] = molecular target: Protein smoothened (Mus musculus) (UniProt P56726); assay: Agonist activity at Smo in mouse NIH/3T3 cells transfected with Gli-dependent firefly luciferase reporter assessed as stimulation of Gli transcription factor incubated for 40 hrs; type: cell-based
[5] = molecular target: Protein smoothened (Rattus norvegicus) (UniProt P97698); assay: Agonist activity at Smo in cerebellar granule cell precursors isolated from rat at postnatal day 8 assessed as stimulation of proliferation by [3H]-thymidine incorporation assay
Chain of Protein smoothened (Rattus norvegicus) (P97698 whole entry): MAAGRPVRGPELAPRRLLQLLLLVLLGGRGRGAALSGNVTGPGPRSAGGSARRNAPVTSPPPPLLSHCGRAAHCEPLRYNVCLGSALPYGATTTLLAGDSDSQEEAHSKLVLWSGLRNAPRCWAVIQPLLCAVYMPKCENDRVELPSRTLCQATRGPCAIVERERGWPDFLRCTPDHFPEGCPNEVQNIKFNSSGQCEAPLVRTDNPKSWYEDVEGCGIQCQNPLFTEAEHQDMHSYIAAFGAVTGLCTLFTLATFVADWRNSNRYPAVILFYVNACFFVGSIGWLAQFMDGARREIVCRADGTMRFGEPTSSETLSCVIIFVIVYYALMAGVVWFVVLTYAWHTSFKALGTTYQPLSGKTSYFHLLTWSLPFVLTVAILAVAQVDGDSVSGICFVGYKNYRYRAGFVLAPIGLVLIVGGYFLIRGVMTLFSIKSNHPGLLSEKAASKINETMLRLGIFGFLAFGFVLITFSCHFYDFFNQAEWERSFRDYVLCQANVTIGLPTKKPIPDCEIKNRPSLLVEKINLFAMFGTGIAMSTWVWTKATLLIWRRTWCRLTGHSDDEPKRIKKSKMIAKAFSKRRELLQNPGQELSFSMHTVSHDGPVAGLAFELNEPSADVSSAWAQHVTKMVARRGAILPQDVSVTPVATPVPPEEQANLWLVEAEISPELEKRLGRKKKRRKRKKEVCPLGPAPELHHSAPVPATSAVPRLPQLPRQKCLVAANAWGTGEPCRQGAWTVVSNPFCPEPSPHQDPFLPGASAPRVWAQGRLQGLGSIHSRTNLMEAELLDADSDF

[6] = molecular target: Protein smoothened (Mus musculus) (UniProt P56726); assay: Induction of Smo translocation to primary cilium in mouse NIH/3T3 cells at 1 uM after overnight incubation by DAPI staining-based immunofluorescence assay relative to control; type: cell-based
[7] = molecular target: Protein smoothened (Mus musculus) (UniProt P56726); assay: Agonist activity at Smo in mouse C3H10T1/2 cells assessed as effect on Gli1 expression at 1 uM after 48 hrs by RT-PCR method relative to vehicle-treated control; type: cell-based; conditions: C3H 10T1/2
[8] = molecular target: Protein smoothened (Mus musculus) (UniProt P56726); assay: Agonist activity at Smo in mouse C3H10T1/2 cells assessed as effect on Gli2 expression at 1 uM after 48 hrs by RT-PCR method relative to vehicle-treated control; type: cell-based; conditions: C3H 10T1/2
[9] = molecular target: Protein smoothened (Mus musculus) (UniProt P56726); assay: Agonist activity at Smo in mouse C3H10T1/2 cells assessed as effect on Gli3 expression at 1 uM after 48 hrs by RT-PCR method relative to vehicle-treated control; type: cell-based; conditions: C3H 10T1/2
[10] = molecular target: Protein smoothened (Mus musculus) (UniProt P56726); assay: Agonist activity at Smo in mouse C3H10T1/2 cells assessed as effect on Ptc1 expression at 1 uM after 48 hrs by RT-PCR method relative to vehicle-treated control; type: cell-based; conditions: C3H 10T1/2
[11] = molecular target: Protein smoothened (Mus musculus) (UniProt P56726); assay: Agonist activity at Smo in mouse C3H10T1/2 cells assessed as effect on Smo expression at 1 uM after 48 hrs by RT-PCR method relative to vehicle-treated control; type: cell-based; conditions: C3H 10T1/2
[12] = molecular target: T1, Coelenterazine h 2-monooxygenase (Renilla reniformis) (UniProt P27652); assay: Induction of Renilla reniformis luciferase activity at 10 uM relative to control
T1 sequence (whole entry): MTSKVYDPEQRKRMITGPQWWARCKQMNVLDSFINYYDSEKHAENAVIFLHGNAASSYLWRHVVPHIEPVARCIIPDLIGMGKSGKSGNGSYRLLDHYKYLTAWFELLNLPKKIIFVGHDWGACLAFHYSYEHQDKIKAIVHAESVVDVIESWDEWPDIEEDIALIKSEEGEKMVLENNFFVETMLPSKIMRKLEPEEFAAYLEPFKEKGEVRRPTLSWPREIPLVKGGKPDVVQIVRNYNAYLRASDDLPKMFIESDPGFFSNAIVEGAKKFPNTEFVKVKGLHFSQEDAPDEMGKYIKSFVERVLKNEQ

Protein smoothened = Protein smoothened (Mus musculus, UniProt P56726); assay: Agonist activity at Smo in mouse NIH/3T3 cells transfected with Gli-dependent firefly luciferase reporter assessed as stimulation of Gli transcription factor; type: cell-based
Chain of Protein smoothened (P56726 whole entry): as the sequence (P56726 whole entry) above

[13] = molecular target: Protein smoothened (Mus musculus) (UniProt P56726); assay: Potency index, ratio of GSA-10 EC50 to compound EC50 for activity at Smo in mouse C3H10T1/2 cells assessed as induction of cell differentiation into osteoblast; type: cell-based; conditions: C3H 10T1/2
[14] = molecular target: Protein smoothened (Mus musculus) (UniProt P56726); assay: Activity at Smo in mouse C3H10T1/2 cells assessed as induction of cell differentiation into osteoblast at 0.3 uM in presence of adenylate cyclase activator forskolin incubated for 6 days by alkaline phosphatase assay; type: cell-based; conditions: C3H 10T1/2
[15] = molecular target: Protein smoothened (Mus musculus) (UniProt P56726); assay: Activity at Smo in mouse C3H10T1/2 cells assessed as induction of cell differentiation into osteoblast at 0.3 uM in presence of phosphodiesterase inhibitor IBMX incubated for 6 days by alkaline phosphatase assay; type: cell-based; conditions: C3H 10T1/2
[16] = molecular target: Protein smoothened (Mus musculus) (UniProt P56726); assay: Activity at Smo in mouse C3H10T1/2 cells assessed as induction of cell differentiation into osteoblast incubated for 6 days by alkaline phosphatase assay; type: cell-based; conditions: C3H 10T1/2
[17] = molecular target: Protein smoothened (Mus musculus) (UniProt P56726); assay: Agonist activity at Smo in mouse C3H10T1/2 cells assessed as effect on Gli1 expression at 10 uM after 48 hrs by RT-PCR method relative to vehicle-treated control; type: cell-based; conditions: C3H 10T1/2
[18] = molecular target: Protein smoothened (Mus musculus) (UniProt P56726); assay: Agonist activity at Smo in mouse C3H10T1/2 cells assessed as effect on Gli2 expression at 10 uM after 48 hrs by RT-PCR method relative to vehicle-treated control; type: cell-based; conditions: C3H 10T1/2
[19] = molecular target: Protein smoothened (Mus musculus) (UniProt P56726); assay: Agonist activity at Smo in mouse C3H10T1/2 cells assessed as effect on Gli3 expression at 10 uM after 48 hrs by RT-PCR method relative to vehicle-treated control; type: cell-based; conditions: C3H 10T1/2
[20] = molecular target: Protein smoothened (Mus musculus) (UniProt P56726); assay: Agonist activity at Smo in mouse C3H10T1/2 cells assessed as effect on Ptc1 expression at 10 uM after 48 hrs by RT-PCR method relative to vehicle-treated control; type: cell-based; conditions: C3H 10T1/2
[21] = molecular target: Protein smoothened (Mus musculus) (UniProt P56726); assay: Agonist activity at Smo in mouse C3H10T1/2 cells assessed as effect on Smo expression at 10 uM after 48 hrs by RT-PCR method relative to vehicle-treated control; type: cell-based; conditions: C3H 10T1/2
[22] = molecular target: Protein smoothened (Mus musculus) (UniProt P56726); assay: Antagonist activity at Smo in mouse NIH/3T3 cells transfected with Gli-dependent firefly luciferase reporter assessed as inhibition of SAG-induced maximal stimulation of Gli transcription factor at 1 uM incubated for 40 hrs relative to control; type: cell-based

SMILES: CCCCCCn1c(=O)c(C(=O)Nc2ccc(C(=O)OC(C)(C)C)cc2)c(O)c2ccccc21
max activation [1]: 69%

SMILES: CCCCCCn1c(=O)c(C(=O)Nc2cccc(C(=O)OC(C)(C)C)c2)c(O)c2ccccc21
max activation [1]: 1.3%

SMILES: CCCCCCn1c(=O)c(C(=O)Nc2ccc(C(N)=O)cc2)c(O)c2ccccc21
max activation [1]: 1%

Activity [2]: Dose-dependent effect
max activation [3]: 75%
Activity [4]: Active
Activity [5]: Active
Activity [6]: > 60%
fold change (FC) [7]: 7.83
fold change (FC) [8]: 1.24
fold change (FC) [9]: 0.72
fold change (FC) [10]: 5.32
fold change (FC) [11]: 0.9
Activity [12]: < 20%
EC50 (Protein smoothened): 0.03 µM
SMILES: CN[C@H]1CC[C@H](N(Cc2cccc(-c3ccncc3)c2)C(=O)c2sc3ccccc3c2Cl)CC1

max activation [1]: 41%
SMILES: CCCOC(=O)c1ccc(NC(=O)c2c(O)c3cc(Cl)ccc3n(CCC)c2=O)cc1

SMILES: CCCCCCn1c(=O)c(C(=O)Nc2ncc([N+](=O)[O-])s2)c(O)c2ccccc21
max activation [1]: 3%

SMILES: CCCOC(=O)c1ccc(NC(=O)c2c(O)c3ccccc3n(Cc3ccccc3)c2=O)cc1
max activation [1]: 7%

SMILES: CCCCCCn1c(=O)c(C(=O)Nc2cccc(C(=O)OCCC)c2)c(O)c2ccccc21
max activation [1]: 2%

SMILES: CCCCCCn1c(=O)c(C(=O)Nc2ccc(C(=O)OCC)cc2)c(O)c2ccccc21
max activation [1]: 62%

SMILES: CCCCCCn1c(=O)c(C(=O)Nc2cc(C)cc(C(=O)OCCC)c2)c(O)c2ccccc21
max activation [1]: 3%

max activation [1]: 78%
SMILES: c1ccc2c(Oc3nc(Nc4ccc(N5CCOCC5)cc4)c4ncn(C5CCCCC5)c4n3)cccc2c1

max activation [1]: 22%
SMILES: C=CCn1c(=O)c(C(=O)Nc2ccc(C(=O)OCCC)cc2)c(O)c2ccccc21

SMILES: CCCCCc1nc2ccccc2c(=O)n1NC(=O)c1c(O)c2ccccc2n(CC)c1=O
max activation [1]: 5%

max activation [1]: 98%
SMILES: CCCOC(=O)c1ccc(NC(=O)c2c(O)c3cc(F)ccc3n(CCC)c2=O)cc1

SMILES: CCCCCCn1c(=O)c(C(=O)Nc2ccc(C(=O)OC(C)C)cc2)c(O)c2ccccc21
max activation [1]: 33%

max activation [1]: 1%
SMILES: CCCOC(=O)c1ccc(NC(=O)c2c(O)c3ccccc3n(C)c2=O)cc1

SMILES: CCCCCn1c(=O)c(C(=O)Nc2ccc(C(=O)OCC)cc2)c(O)c2ccccc21
max activation [1]: 76%

SMILES: CCCCCCn1c(=O)c(C(=O)Nc2ccc(C(=O)OCc3ccccc3)cc2)c(O)c2ccccc21
max activation [1]: 47%

SMILES: CCCCCCn1c(=O)c(C(=O)Nc2ccc(C(=O)O)cc2)c(O)c2ccccc21
Ratio EC50 [13]: 2
Activity [14]: Active
Activity [15]: Active
Activity [16]: Dose-dependent effect
max activation [1]: 137%
fold change (FC) [17]: 0.05
fold change (FC) [18]: 1.63
fold change (FC) [19]: 0.98
fold change (FC) [20]: 0.26
fold change (FC) [21]: 0.92
inhibition [22]: 26%
Activity [12]: < 20%

Source: ChEMBL document CHEMBL3860037, “Design, synthesis and biological characterization of a new class of osteogenic (1H)-quinolone derivatives” (Eur J Med Chem, 2016)
